Laboratory results from US20260078119A1, “DEGRADER COMPOUNDS AND USES THEREOF” (Bristol-Myers Squibb Company, priority 2024, published 2026).

Experiments:
FAK = biological target: T1, FAK (Homo sapiens, UniProt Q05397); assay: FAK-HiBiT Degradation Assay; assay type: cell-based; conditions: for DC50: JHH-4-FAK-HiBiT clone d01 cells, two hours incubation, 10-point dose response, 3-fold dilution starting at 1 μM, Nano-Glo HiBiT luminescence, read-out: FAK HiBiT EC50; for FAK HiBiT Ymin: lower limit of the four parameter fit (value A), Ymax derived using DMSO control, JHH-4-FAK-HiBiT cells, two hours
T1 construct: homozygous knock-in of a HiBiT tag (Promega Corporation, Madison, WI) to the C-terminus of the FAK gene in its natural genomic locus; endogenous in cells; host or cells: JHH-4-FAK-HiBiT clone d01 (CRISPR-Cas9 knock-in at the endogenous locus)
T1 sequence (Q05397 whole entry): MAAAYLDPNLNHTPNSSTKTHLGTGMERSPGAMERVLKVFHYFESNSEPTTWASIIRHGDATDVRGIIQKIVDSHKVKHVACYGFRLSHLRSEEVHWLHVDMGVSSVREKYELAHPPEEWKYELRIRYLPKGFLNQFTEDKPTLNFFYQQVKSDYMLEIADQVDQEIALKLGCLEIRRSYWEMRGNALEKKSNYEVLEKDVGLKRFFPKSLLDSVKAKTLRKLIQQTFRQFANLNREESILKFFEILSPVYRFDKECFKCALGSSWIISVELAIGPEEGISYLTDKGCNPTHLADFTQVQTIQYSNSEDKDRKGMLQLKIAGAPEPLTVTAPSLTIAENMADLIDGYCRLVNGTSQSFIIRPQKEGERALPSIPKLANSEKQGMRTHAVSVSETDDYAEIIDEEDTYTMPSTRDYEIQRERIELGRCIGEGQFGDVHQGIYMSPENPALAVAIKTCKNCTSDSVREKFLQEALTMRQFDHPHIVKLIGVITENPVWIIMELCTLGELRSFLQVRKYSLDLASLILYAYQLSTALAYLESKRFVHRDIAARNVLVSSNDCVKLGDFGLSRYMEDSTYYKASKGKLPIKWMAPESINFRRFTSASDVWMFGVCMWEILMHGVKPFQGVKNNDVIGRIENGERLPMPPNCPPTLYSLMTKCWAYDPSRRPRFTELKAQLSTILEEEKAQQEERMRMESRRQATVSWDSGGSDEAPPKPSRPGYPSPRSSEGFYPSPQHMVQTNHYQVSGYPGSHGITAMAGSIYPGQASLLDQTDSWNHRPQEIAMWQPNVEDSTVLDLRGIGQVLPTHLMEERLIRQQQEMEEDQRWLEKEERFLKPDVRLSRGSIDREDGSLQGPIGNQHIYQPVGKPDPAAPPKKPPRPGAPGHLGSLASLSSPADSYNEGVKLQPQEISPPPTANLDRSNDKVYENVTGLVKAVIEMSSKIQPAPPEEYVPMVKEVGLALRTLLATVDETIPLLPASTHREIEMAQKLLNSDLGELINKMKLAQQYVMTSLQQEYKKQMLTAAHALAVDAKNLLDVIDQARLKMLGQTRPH
Method in brief: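 Degradation read out by HiBiT lytic luminescence after 2 h compound exposure (top concentration 1 μM, 3-fold, 10 points) in JHH-4 clone d01 bearing endogenous FAK-HiBiT knock-in. Four-parameter logistic fit gave EC50 and Ymin; DMSO wells defined Ymax.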

CAL-51 cells = assay: CAL-51 Cell Proliferation Assay; assay type: cell-based; conditions: for EC50: Homo sapiens, 120 hours incubation, 10-point dose response, 4-fold dilutions starting at 10 μM, Cell-Titer-Glo, read-out: CAL-51 Prolif EC50; for CAL-51 Prolif Ymin: minimal percent of DMSO control observed in the concentrations tested (Ymin-obs), 120 hours
Excerpt: CAL-51 cells were obtained from Bristol Myers Squibb internal cell banks (originally sourced from DSMZ-German Collection of Microorganisms and Cell Cultures GmbH, Germany) and cultured in RPMI complete media (RPMI-1640, 10% Fetal Bovine serum, 1× Antibiotic-Antimycotic, and 1× Non-Essential Amino Acids). Compounds were dispensed into 384-well plates using an acoustic dispenser (Beckman Coulter Life Sciences, Carlsbad, CA) in duplicate with 14 compounds on each plate. For each compound, a 10-point dose response was printed at 4-fold dilutions starting at 10 μM. The DMSO concentration was kept constant for a final assay concentration of 0.1% per well assuming 50 uL final media volume. Compound plates were sealed and frozen at −20° C. until use.
For each assay batch, compound plates were thawed and allowed to reach room temperature, and cells were seeded at 350 cells per well in 50 μl complete RPMI media. After 120 hours of incubation at 37° C. and 5% CO2, cells were lysed by addition of 25 μL of Cell-Titer-Glo Reagent (Promega Corporation, Madison, WI), as per manufacturer's instructions, protected from light, shaken for 20 minutes, and total luminescence read by a CLARIOstar Plus plate reader (BMG LabTech, Cary, NC). Total luminescence signal is linearly correlated with cell number remaining in the well.
Luminescence data was processed per plate by subtracting reagent-only “blank” well luminescence from all measured values and calculating a percent of DMSO control value for each treatment well. Then, to determine the half-maximal effective concentration (EC50) values for cell growth inhibition, a four parameter logistic model was fit to the data for each DMSO-normalized compound: Sigmoidal Dose-Response Model: (FIT=(A+((B−A)/1+((C/x)^D)))) where C is the inflection point (EC50), D is the Hill slope, and A and B are the low and high limits of the fit respectively. The lower limit of the fit (value A) is referred to as Ymin-calculated. The minimal percent of DMSO control that is observed in the concentrations tested for each compound is labeled as “Ymin-obs”, and was recorded and reported in the tables. Sigmoidal fit curves were processed and evaluated using Dotmatics Atlas (Insightful Science, LLC, Boston, MA).

| SMILES | DC50 (FAK) [nM] | FAK HiBiT Ymin (FAK) | EC50 (CAL-51 cells) [nM] | CAL-51 Prolif Ymin (CAL-51 cells) |
| --- | --- | --- | --- | --- |
| Cc1cnc(-c2cc(N3CC(F)C3)nc3c2cnn3Cc2ccc3c(c2)CN(C2CCC(=O)NC2=O)C3=O)c(Cl)c1 (stereo not drawn) [Example 57, 3-(5-{[4-(3-chloro-5-methylpyridin-2-yl)-6-(3-fluoroazetidin-1-yl)-1H-pyrazolo[3,4-b]pyridin-1-yl]methyl}-1-oxo-2,3-dihydro-1H-isoindol-2-yl)piperidine-2,6-dione] | 3.41 | 8.26 | 1.51 | 25.51 |
| C[C@]1(O)CCN(c2cc(-c3ncc(C(F)(F)F)cc3Cl)c3cnn(Cc4ccc5c(c4)CN([C@H]4CCC(=O)NC4=O)C5=O)c3n2)C1 [Example 102, (3S)-3-[5-({4-[3-chloro-5-(trifluoromethyl)pyridin-2-yl]-6-[(3S)-3-hydroxy-3-methylpyrrolidin-1-yl]-1H-pyrazolo[3,4-b]pyridin-1-yl}methyl)-1-oxo-2,3-dihydro-1H-isoindol-2-yl]piperidine-2,6-dione] | 29.6 | 12.65 | 10.9 | 35.36 |
| O=C1CCC(N2Cc3cc(Cn4ccc5c(-c6ncc(F)cc6Cl)cc(N6CC(F)C6)nc54)ccc3C2=O)C(=O)N1 (stereo not drawn) [Example 17, 3-(5-((4-(3-chloro-5-fluoropyridin-2-yl)-6-(3-fluoroazetidin-1-yl)-1H-pyrrolo[2,3-b]pyridin-1-yl)methyl)-1-oxoisoindolin-2-yl)piperidine-2,6-dione] | 3.36 | 7.42 | 3.46 | 28.46 |
| O=C1CC[C@H](N2Cc3cc(Cn4ccc5c(-c6ncc(C(F)(F)F)cc6Cl)nc(N6CC(F)C6)nc54)ccc3C2=O)C(=O)N1 [Example 28, (S)-3-(5-((4-(3-chloro-5-(trifluoromethyl)pyridin-2-yl)-2-(3-fluoroazetidin-1-yl)-7H-pyrrolo[2,3-d]pyrimidin-7-yl)methyl)-1-oxoisoindolin-2-yl)piperidine-2,6-dione] | 0.38 | 7.63 | 0.45 | 25.69 |
| Cc1cc(F)cnc1-c1cc(N2CC(F)C2)nc2c1cnn2Cc1ccc2c(c1)CN([C@H]1CCC(=O)NC1=O)C2=O [Example 144, (S)-3-(5-((4-(5-fluoro-3-methylpyridin-2-yl)-6-(3-fluoroazetidin-1-yl)-1H-pyrazolo[3,4-b]pyridin-1-yl)methyl)-1-oxoisoindolin-2-yl)piperidine-2,6-dione] | 10.1 | 11.17 | 7.14 | 35.43 |
| Cc1cc(Cl)cnc1-c1c(F)c(N2CC(F)C2)nc2c1cnn2Cc1ccc2c(c1)CN(C1CCC(=O)NC1=O)C2=O (stereo not drawn) [Example 37, 3-(5-{[4-(5-chloro-3-methylpyridin-2-yl)-5-fluoro-6-(3-fluoroazetidin-1-yl)-1H-pyrazolo[3,4-b]pyridin-1-yl]methyl}-1-oxo-2,3-dihydro-1H-isoindol-2-yl)piperidine-2,6-dione] | 0.98 | 7.33 | 0.6 | 19.81 |
| Cc1cc(F)cnc1-c1cc(N2CC[C@H](O)C2)nc2c1cnn2Cc1ccc2c(c1)CN([C@H]1CCC(=O)NC1=O)C2=O [Example 125, (3S)-3-(5-{[4-(5-fluoro-3-methylpyridin-2-yl)-6-[(3S)-3-hydroxypyrrolidin-1-yl]-1H-pyrazolo[3,4-b]pyridin-1-yl]methyl}-1-oxo-2,3-dihydro-1H-isoindol-2-yl)piperidine-2,6-dione] | 149 | 29.00 | 262 | 34.48 |
| O=C1CC[C@H](N2Cc3cc(Cn4ncc5c(-c6ccc(F)cc6F)cc(N6CC(F)C6)nc54)ccc3C2=O)C(=O)N1 [Example 30, (3S)-3-(5-{[4-(2,4-difluorophenyl)-6-(3-fluoroazetidin-1-yl)-1H-pyrazolo[3,4-b]pyridin-1-yl]methyl}-1-oxo-2,3-dihydro-1H-isoindol-2-yl)piperidine-2,6-dione] | 0.72 | 7.40 | 0.77 | 26.67 |
| O=C1CC[C@H](N2Cc3nc(Cn4ncc5c(-c6ncc(C(F)(F)F)cc6Cl)cc(N6CC(F)C6)nc54)ccc3C2=O)C(=O)N1 [Example 76, (3S)-3-[2-({4-[3-chloro-5-(trifluoromethyl)pyridin-2-yl]-6-(3-fluoroazetidin-1-yl)-1H-pyrazolo[3,4-b]pyridin-1-yl}methyl)-5-oxo-5H,6H,7H-pyrrolo[3,4-b]pyridin-6-yl]piperidine-2,6-dione] | 7.97 | 9.51 | 6.15 | 34.59 |
| O=C1CC[C@H](N2Cc3cc(Cn4ncc5c(-c6ncc(OC(F)(F)F)cc6Cl)cc(N6CC(F)C6)nc54)ccc3C2=O)C(=O)N1 [Example 7, (S)-3-(5-((4-(3-chloro-5-(trifluoromethoxy)pyridin-2-yl)-6-(3-fluoroazetidin-1-yl)-1H-pyrazolo[3,4-b]pyridin-1-yl)methyl)-1-oxoisoindolin-2-yl)piperidine-2,6-dione] | 0.57 | 8.83 | 0.36 | 21.87 |
| Cc1nc2c(-c3ccc(F)cc3F)cc(N3CC(F)C3)nc2n1Cc1ccc2c(c1)CN(C1CCC(=O)NC1=O)C2=O (stereo not drawn) [Example 23, 3-(5-((7-(2,4-difluorophenyl)-5-(3-fluoroazetidin-1-yl)-2-methyl-3H-imidazo[4,5-b]pyridin-3-yl)methyl)-1-oxoisoindolin-2-yl)piperidine-2,6-dione] | 1.03 | 7.69 | 0.62 | 20.44 |
| O=C1CCC(N2Cc3cc(Cn4ccc5c(-c6ncc(C(F)(F)F)cc6Cl)cc(N6CC(F)C6)nc54)ccc3C2=O)C(=O)N1 (stereo not drawn) [Example 15, 3-(5-((4-(3-chloro-5-(trifluoromethyl)pyridin-2-yl)-6-(3-fluoroazetidin-1-yl)-1H-pyrrolo[2,3-b]pyridin-1-yl)methyl)-1-oxoisoindolin-2-yl)piperidine-2,6-dione] | 0.95 | 7.50 | 0.89 | 29.00 |
| COc1cnc(-c2cc(N3CC(F)C3)nc3c2cnn3Cc2ccc3c(c2)CN(C2CCC(=O)NC2=O)C3=O)c(C)c1 (stereo not drawn) [Example 97, 3-(5-{[6-(3-fluoroazetidin-1-yl)-4-(5-methoxy-3-methylpyridin-2-yl)-1H-pyrazolo[3,4-b]pyridin-1-yl]methyl}-1-oxo-2,3-dihydro-1H-isoindol-2-yl)piperidine-2,6-dione] | 22.9 | 12.95 | 14.4 | 38.61 |
| N#Cc1ccc(-c2c(Cl)c(N3CC(F)C3)nc3c2cnn3Cc2ccc3c(c2)CN(C2CCC(=O)NC2=O)C3=O)c(F)c1 (stereo not drawn) [Example 10, 4-(5-chloro-1-{[2-(2,6-dioxopiperidin-3-yl)-1-oxo-2,3-dihydro-1H-isoindol-5-yl]methyl}-6-(3-fluoroazetidin-1-yl)-1H-pyrazolo[3,4-b]pyridin-4-yl)-3-fluorobenzonitrile] | 0.56 | 6.93 | 75.4 | 33.21 |
| O=C1CCC(N2Cc3cc(Cn4ncc5c(-c6ncccc6Cl)c(Cl)c(N6CC(F)C6)nc54)ccc3C2=O)C(=O)N1 (stereo not drawn) [Example 38, 3-(5-{[5-chloro-4-(3-chloropyridin-2-yl)-6-(3-fluoroazetidin-1-yl)-1H-pyrazolo[3,4-b]pyridin-1-yl]methyl}-1-oxo-2,3-dihydro-1H-isoindol-2-yl)piperidine-2,6-dione] | 1.09 | 8.19 | 0.48 | 21.89 |
